The record followed here is ChEMBL document CHEMBL3046000, “Design and synthesis of 1-(benzothiazol-5-yl)-1H-1,2,4-triazol-5-ones as protoporphyrinogen oxidase inhibitors” (Bioorg Med Chem, 2013).

For orientation: Ki means the dissociation constant of the complex between target and ligand, obtained from inhibition or displacement.

SMILES strings stand for the structures. A value given as a limit tells only on which side of the number the result lay.

Test [1] deals with Brassica juncea. As to the kind of experiment: Post-emergence herbicidal activity against Brassica juncea seedlings assessed as plant growth inhibition at 150 g ai/ha measured 15 days after compound treatment under greenhouse conditions. It counts as functional. As to conditions: 360 h, read-out: GI.
Test [2] has as its system Setaria faberi. As to the kind of experiment: Post-emergence herbicidal activity against Setaria faberi (Giant Foxtail) seedlings assessed as plant growth inhibition at 37.5 g ai/ha measured 15 days after compound treatment under greenhouse conditions. It counts as functional. As to conditions: 360 h, read-out: GI.
The test system of test [3] is Amaranthus retroflexus. As to the kind of experiment: Post emergence herbicidal activity against Amaranthus retroflexus seedlings assessed as plant growth inhibition at 75 g ai/ha measured 15 days after compound treatment under greenhouse conditions. It counts as functional. As to conditions: 360 h, read-out: GI.
The subject of test [4] is Setaria faberi. As to the kind of experiment: Post-emergence herbicidal activity against Setaria faberi (Giant Foxtail) seedlings assessed as plant growth inhibition at 75 g ai/ha measured 15 days after compound treatment under greenhouse conditions. As to conditions: 360 h, read-out: GI. The format is functional.
In test [5] the test system is Digitaria sanguinalis. As to the kind of experiment: Post-emergence herbicidal activity against Digitaria sanguinalis (hairy crabgrass) seedlings assessed as plant growth inhibition at 75 g ai/ha measured 15 days after compound treatment under greenhouse conditions. As to conditions: 360 h, read-out: GI. It counts as functional.
For test [6], the system named is Amaranthus retroflexus. The test can be described thus: Post emergence herbicidal activity against Amaranthus retroflexus seedlings assessed as plant growth inhibition at 150 g ai/ha measured 15 days after compound treatment under greenhouse conditions. It counts as functional. As to conditions: 360 h, read-out: GI.
In test [7] the test system is Setaria faberi. The test can be described thus: Post-emergence herbicidal activity against Setaria faberi (Giant Foxtail) seedlings assessed as plant growth inhibition at 150 g ai/ha measured 15 days after compound treatment under greenhouse conditions. It counts as functional. The conditions noted are these: 360 h, read-out: GI.
In test [8] the test system is Chenopodium album. The test can be described thus: Post-emergence herbicidal activity against Chenopodium album seedlings assessed as plant growth inhibition at 37.5 g ai/ha measured 15 days after compound treatment under greenhouse conditions. It counts as functional. The conditions noted are these: 360 h, read-out: GI.
Test [9] relates to Brassica juncea. As to the kind of experiment: Post-emergence herbicidal activity against Brassica juncea seedlings assessed as plant growth inhibition at 37.5 g ai/ha measured 15 days after compound treatment under greenhouse conditions. The format is functional. As to conditions: 360 h, read-out: GI.
The test system of test [10] is Digitaria sanguinalis. The test can be described thus: Post-emergence herbicidal activity against Digitaria sanguinalis (hairy crabgrass) seedlings assessed as plant growth inhibition at 37.5 g ai/ha measured 15 days after compound treatment under greenhouse conditions. The format is functional. The conditions noted are these: 360 h, read-out: GI.
The test system of test [11] is Echinochloa crus-galli. The test can be described thus: Post emergence herbicidal activity against Echinochloa crus-galli (barnyard grass) seedlings assessed as plant growth inhibition at 37.5 g ai/ha measured 15 days after compound treatment under greenhouse conditions. The format is functional. The conditions noted are these: 360 h, read-out: GI.
Test [12] has as its system Echinochloa crus-galli. The test can be described thus: Post emergence herbicidal activity against Echinochloa crus-galli (barnyard grass) seedlings assessed as plant growth inhibition at 150 g ai/ha measured 15 days after compound treatment under greenhouse conditions. The format is functional. As to conditions: 360 h, read-out: GI.
Test [13] concerns Chenopodium album. The test can be described thus: Post-emergence herbicidal activity against Chenopodium album seedlings assessed as plant growth inhibition at 150 g ai/ha measured 15 days after compound treatment under greenhouse conditions. The format is functional. The conditions noted are these: 360 h, read-out: GI.
For test [14], the system named is Echinochloa crus-galli. As to the kind of experiment: Post emergence herbicidal activity against Echinochloa crus-galli (barnyard grass) seedlings assessed as plant growth inhibition at 75 g ai/ha measured 15 days after compound treatment under greenhouse conditions. As to conditions: 360 h, read-out: GI. It counts as functional.
Test [15] relates to Digitaria sanguinalis. As to the kind of experiment: Post-emergence herbicidal activity against Digitaria sanguinalis (hairy crabgrass) seedlings assessed as plant growth inhibition at 150 g ai/ha measured 15 days after compound treatment under greenhouse conditions. The format is functional. The conditions noted are these: 360 h, read-out: GI.
In test [16] the test system is Amaranthus retroflexus. As to the kind of experiment: Post emergence herbicidal activity against Amaranthus retroflexus seedlings assessed as plant growth inhibition at 37.5 g ai/ha measured 15 days after compound treatment under greenhouse conditions. The format is functional. As to conditions: 360 h, read-out: GI.
The subject of test [17] is Brassica juncea. As to the kind of experiment: Post-emergence herbicidal activity against Brassica juncea seedlings assessed as plant growth inhibition at 75 g ai/ha measured 15 days after compound treatment under greenhouse conditions. As to conditions: 360 h, read-out: GI. The format is functional.
In test [18] the target is T1, Protoporphyrinogen oxidase, chloroplastic (Nicotiana tabacum, UniProt O24163).
T1 sequence (O24163 whole entry): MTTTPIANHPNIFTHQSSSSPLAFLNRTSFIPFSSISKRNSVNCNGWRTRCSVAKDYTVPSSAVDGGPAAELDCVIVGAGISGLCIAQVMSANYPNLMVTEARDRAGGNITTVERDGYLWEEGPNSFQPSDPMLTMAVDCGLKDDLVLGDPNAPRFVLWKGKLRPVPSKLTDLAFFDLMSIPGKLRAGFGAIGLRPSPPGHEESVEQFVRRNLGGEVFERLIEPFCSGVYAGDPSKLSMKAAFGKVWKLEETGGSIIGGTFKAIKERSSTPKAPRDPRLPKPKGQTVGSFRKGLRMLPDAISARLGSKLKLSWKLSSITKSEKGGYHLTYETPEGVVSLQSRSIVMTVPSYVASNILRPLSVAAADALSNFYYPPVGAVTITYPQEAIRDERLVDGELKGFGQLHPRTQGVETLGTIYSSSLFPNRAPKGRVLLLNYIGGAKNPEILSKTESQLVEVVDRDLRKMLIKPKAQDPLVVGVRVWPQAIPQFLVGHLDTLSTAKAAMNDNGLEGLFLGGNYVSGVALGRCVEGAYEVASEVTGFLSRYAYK
The test can be described thus: Inhibition of Nicotiana tabacum (tobacco) recombinant PPO assessed as protoporphyrin IX formation at room temperature by fluorimetric assay.

The test system of test [19] is Chenopodium album. The test can be described thus: Post-emergence herbicidal activity against Chenopodium album seedlings assessed as plant growth inhibition at 75 g ai/ha measured 15 days after compound treatment under greenhouse conditions. The format is functional. As to conditions: 360 h, read-out: GI.

Turning to `CCOC(=O)CSc1nc2cc(-n3nc(C)n(C(F)F)c3=O)c(F)cc2s1`, the inhibition of growth at 150 g/ha is at least 90% in test [1]; 60% in [6]; at least 90% in test [7]; at least 90% in [12]; 80% in [13]; at least 90% in [15]. Besides, the inhibition of growth at 37.5 g/ha was under 50% in test [2]; 80% in test [8]; 80% in test [9]; under 50% in [10]; under 50% in test [11]; 80% in [16]. Besides, the inhibition of growth at 75 g/ha is 80% in test [3]; under 50% in test [4]; 50% in [5]; 50% in test [14]; 80% in test [17]; 80% in test [19]. Also, in test [18], the Ki was 60 nM.
Take `COC(=O)CSc1nc2cc(-n3nc(C)n(C(F)F)c3=O)c(Cl)cc2s1`: the inhibition of growth at 150 g/ha is at least 90% in test [1]; at least 90% in [6]; at least 90% in test [7]; at least 90% in [12]; 60% in test [13]; at least 90% in test [15]. Besides, the inhibition of growth at 37.5 g/ha is 50% in test [2]; at least 90% in [8]; 60% in test [9]; under 50% in [10]; 50% in test [11]; 60% in [16]. Further, the inhibition of growth at 75 g/ha in test [3] was at least 90%; in test [4], 50%; in [5] it was under 50%; in test [14], 50%; in [17] it was 80%; in test [19], at least 90%. Further, the Ki in test [18] turned out to be 15200 nM.
On to `C=CCSc1nc2cc(-n3nc(C)n(C(F)F)c3=O)c(Br)cc2s1`, for which the inhibition of growth at 150 g/ha was 50% in test [1]; 60% in [6]; 60% in test [7]; under 50% in [12]; 50% in test [13]; under 50% in [15]. Moreover, in [18], the inhibition constant (Ki) is 12800 nM.
Regarding `CCOC(=O)CSc1nc2cc(-n3nc(C)n(C(F)F)c3=O)c(Cl)cc2s1`, the inhibition of growth at 150 g/ha was at least 90% in [1]; 80% in test [6]; 80% in [7]; at least 90% in test [12]; under 50% in [13]; at least 90% in test [15]. Moreover, in test [18], the Ki turned out to be 1370 nM.
For the compound `CCCCSc1nc2cc(-n3nc(C)n(C(F)F)c3=O)c(Cl)cc2s1`, the inhibition of growth at 150 g/ha in test [1] was 50%; in [6] it was under 50%; in test [7], under 50%; in test [12] it was under 50%; in test [13], under 50%; in test [15] it was under 50%. Further, in [18], the inhibition constant (Ki) came out at 2970 nM.
Turning to `CSc1nc2cc(-n3nc(C)n(C(F)F)c3=O)c(Cl)cc2s1`, the inhibition of growth at 150 g/ha in [1] was 60%; in [6], 50%; in test [7] it was under 50%; in [12] it was under 50%; in test [13] it was 50%; in [15], 50%. The Ki in test [18] stood at 13900 nM.
Consider `COC(=O)Sc1nc2cc(-n3nc(C)n(C(F)F)c3=O)c(Cl)cc2s1`, for which the inhibition of growth at 150 g/ha in [1], in test [6], in [7], in test [12], in test [13] and in test [15] was under 50% each time.
For the compound `CCOC(=O)Sc1nc2cc(-n3nc(C)n(C(F)F)c3=O)c(Cl)cc2s1`, the inhibition of growth at 150 g/ha in [1], in [6], in [7], in test [12], in test [13] and in test [15] was under 50% throughout.
For `C=CCSc1nc2cc(-n3nc(C)n(C(F)F)c3=O)c(Cl)cc2s1`, the inhibition of growth at 150 g/ha was 60% in test [1]; 60% in test [6]; 60% in test [7]; 60% in test [12]; under 50% in test [13]; under 50% in test [15]. Further, the Ki in test [18] was found to be 3130 nM.
Consider `CCOC(=O)C(C)Sc1nc2cc(-n3nc(C)n(C(F)F)c3=O)c(Cl)cc2s1` (configuration not stated), for which the inhibition of growth at 150 g/ha was at least 90% in test [1]; at least 90% in test [6]; 80% in [7]; 80% in test [12]; 60% in [13]; 80% in test [15]. Also, the inhibitory constant (Ki) in test [18] came out at 3390 nM.
As to `CCCCSc1nc2cc(-n3nc(C)n(C(F)F)c3=O)c(F)cc2s1`, the inhibition of growth at 150 g/ha in test [1] was 60%; in test [6], 60%; in test [7], 80%; in [12] it was 60%; in test [13], under 50%; in test [15] it was 80%. In test [18], the Ki came out at 210 nM.
`CCCSc1nc2cc(-n3nc(C)n(C(F)F)c3=O)c(Cl)cc2s1`: the inhibition of growth at 150 g/ha is at least 90% in test [1]; 60% in [6]; under 50% in [7]; under 50% in test [12]; 50% in test [13]; under 50% in test [15]. The inhibition constant (Ki) in test [18] came out at 2010 nM.
As to `CCCSc1nc2cc(-n3nc(C)n(C(F)F)c3=O)c(F)cc2s1`, the inhibition of growth at 150 g/ha in [1] was 60%; in [6], 60%; in test [7], 60%; in [12], 60%; in [13] it was under 50%; in [15], 80%. For the same compound, the Ki in test [18] was found to be 300 nM.
In the case of `C=CCSc1nc2cc(-n3nc(C)n(C(F)F)c3=O)c(F)cc2s1`, the inhibition of growth at 150 g/ha in test [1] is under 50%; in [6], 50%; in test [7], 60%; in test [12], 80%; in [13], under 50%; in test [15], 60%. In [18], the Ki was 200 nM.
Turning to `CSc1nc2cc(-n3nc(C)n(C(F)F)c3=O)c(F)cc2s1`, the inhibition of growth at 150 g/ha in test [1] is under 50%; in test [6] it was 80%; in [7], 50%; in [12], 50%; in [13], under 50%; in test [15], under 50%. Moreover, the inhibition constant (Ki) in test [18] was 510 nM.
